Values quoted from earlier work, collected in patent US20140142181A1, “TREATING AND INHIBITING RECURRENCE OF MUSCLE CRAMPS” (priority 2012, published 2014).

Experiments:
[1] = received by USFDA; quinine use
cramping = details: 39 Division I baseball players; creatine supplementation during training and competition

SMILES	Deaths among reported adverse events [1]	Reports of adverse events with serious outcomes [1]	Cramping, creatine group versus non-creatine group (cramping)
C=C[C@H]1C[N@@]2CC[C@H]1C[C@H]2[C@H](O)c1ccnc2ccc(OC)cc12 [quinine, Quinine]	93	665	
CN(CC(=O)O)C(=N)N [creatine]			no significant difference
